Source: the kinase profiling compilation of Christmann-Franck et al. (2016)

Assays:
Assay in all cases: KINOMEscan competition binding
Conditions in all cases: compound 10.0 µM
PHKG1 (human) = PHKG1 (human) (UniProt Q16816)
ABL2 (human) = ABL2 (human) (UniProt P42684)
MAP2K6 (human) = MAP2K6 (human) (UniProt P52564)
MYLK2 (human) = MYLK2 (human) (UniProt Q9H1R3)
PIK3CD (human) = PIK3CD (human) (UniProt O00329)
[1] = system: KIT (human), P10721 [V559D]
MAPK8 (human) = MAPK8 (human) (UniProt P45983)
Sequence of MAPK8 (human) (P45983 whole entry, looked up): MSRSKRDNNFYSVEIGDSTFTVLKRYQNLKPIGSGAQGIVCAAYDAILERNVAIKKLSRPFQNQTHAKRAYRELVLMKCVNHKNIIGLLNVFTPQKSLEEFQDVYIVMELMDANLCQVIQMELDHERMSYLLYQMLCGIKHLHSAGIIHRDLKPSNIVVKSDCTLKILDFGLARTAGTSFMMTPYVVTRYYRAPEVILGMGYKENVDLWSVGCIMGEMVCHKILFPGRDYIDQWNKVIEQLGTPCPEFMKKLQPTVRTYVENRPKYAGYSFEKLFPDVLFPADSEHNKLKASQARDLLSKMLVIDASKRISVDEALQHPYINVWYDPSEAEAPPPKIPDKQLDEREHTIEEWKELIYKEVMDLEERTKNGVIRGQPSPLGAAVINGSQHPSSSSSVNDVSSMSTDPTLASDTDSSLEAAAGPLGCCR

YES1 (human) = YES1 (human) (UniProt P07947)
MAP3K9 (human) = MAP3K9 (human) (UniProt P80192)
Sequence of MAP3K9 (human) (P80192 whole entry, looked up): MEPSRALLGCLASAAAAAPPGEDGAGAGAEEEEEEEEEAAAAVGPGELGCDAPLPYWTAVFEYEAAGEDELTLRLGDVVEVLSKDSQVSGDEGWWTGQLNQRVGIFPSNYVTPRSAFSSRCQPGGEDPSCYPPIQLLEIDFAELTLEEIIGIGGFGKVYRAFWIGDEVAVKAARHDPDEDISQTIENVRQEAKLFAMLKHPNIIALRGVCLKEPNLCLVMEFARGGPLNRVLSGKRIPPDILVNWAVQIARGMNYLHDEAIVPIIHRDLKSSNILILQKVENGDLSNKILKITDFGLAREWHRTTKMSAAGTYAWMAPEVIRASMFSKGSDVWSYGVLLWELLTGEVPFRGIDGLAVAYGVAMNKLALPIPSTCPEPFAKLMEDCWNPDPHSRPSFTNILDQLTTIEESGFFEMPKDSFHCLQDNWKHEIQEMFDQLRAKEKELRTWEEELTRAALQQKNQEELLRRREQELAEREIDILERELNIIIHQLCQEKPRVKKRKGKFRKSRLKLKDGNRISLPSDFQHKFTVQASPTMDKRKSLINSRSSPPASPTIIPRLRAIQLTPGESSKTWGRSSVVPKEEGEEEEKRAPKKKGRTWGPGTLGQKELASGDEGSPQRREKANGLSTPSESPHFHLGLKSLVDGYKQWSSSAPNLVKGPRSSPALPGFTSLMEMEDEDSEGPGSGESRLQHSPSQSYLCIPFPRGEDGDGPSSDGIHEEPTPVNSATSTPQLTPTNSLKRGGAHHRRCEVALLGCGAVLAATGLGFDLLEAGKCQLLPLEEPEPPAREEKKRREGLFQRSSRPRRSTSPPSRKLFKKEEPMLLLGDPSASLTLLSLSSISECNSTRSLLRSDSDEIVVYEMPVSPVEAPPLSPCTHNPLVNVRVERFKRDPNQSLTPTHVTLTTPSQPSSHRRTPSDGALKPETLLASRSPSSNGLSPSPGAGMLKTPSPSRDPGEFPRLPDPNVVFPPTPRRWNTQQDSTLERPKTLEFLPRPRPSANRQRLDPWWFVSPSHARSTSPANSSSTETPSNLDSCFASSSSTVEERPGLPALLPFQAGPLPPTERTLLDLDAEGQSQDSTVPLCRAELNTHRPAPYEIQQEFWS

LIMK2 (human) = LIMK2 (human) (UniProt P53671)
Sequence of LIMK2 (human) (P53671 whole entry, looked up): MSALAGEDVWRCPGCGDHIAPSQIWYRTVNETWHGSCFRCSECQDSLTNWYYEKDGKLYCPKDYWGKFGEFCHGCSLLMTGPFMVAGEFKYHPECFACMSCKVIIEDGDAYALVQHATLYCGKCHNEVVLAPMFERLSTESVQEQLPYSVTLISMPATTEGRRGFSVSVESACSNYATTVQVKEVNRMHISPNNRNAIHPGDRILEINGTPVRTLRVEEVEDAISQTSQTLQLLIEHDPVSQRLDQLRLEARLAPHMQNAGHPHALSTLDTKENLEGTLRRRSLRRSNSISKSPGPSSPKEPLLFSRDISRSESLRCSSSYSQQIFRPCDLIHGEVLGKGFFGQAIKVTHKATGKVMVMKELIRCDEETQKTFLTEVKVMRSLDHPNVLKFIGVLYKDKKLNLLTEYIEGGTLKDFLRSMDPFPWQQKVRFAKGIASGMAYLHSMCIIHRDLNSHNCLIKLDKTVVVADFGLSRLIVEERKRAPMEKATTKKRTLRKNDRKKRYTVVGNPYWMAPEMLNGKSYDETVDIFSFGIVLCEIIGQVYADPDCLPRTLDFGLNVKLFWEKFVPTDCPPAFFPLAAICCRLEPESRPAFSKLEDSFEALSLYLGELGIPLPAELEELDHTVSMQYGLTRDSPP

SLK (human) = SLK (human) (UniProt Q9H2G2)
STK17B (human) = STK17B (human) (UniProt O94768)
STK17A (human) = STK17A (human) (UniProt Q9UEE5)
MAPK9 (human) = MAPK9 (human) (UniProt P45984)
Sequence of MAPK9 (human) (P45984 whole entry, looked up): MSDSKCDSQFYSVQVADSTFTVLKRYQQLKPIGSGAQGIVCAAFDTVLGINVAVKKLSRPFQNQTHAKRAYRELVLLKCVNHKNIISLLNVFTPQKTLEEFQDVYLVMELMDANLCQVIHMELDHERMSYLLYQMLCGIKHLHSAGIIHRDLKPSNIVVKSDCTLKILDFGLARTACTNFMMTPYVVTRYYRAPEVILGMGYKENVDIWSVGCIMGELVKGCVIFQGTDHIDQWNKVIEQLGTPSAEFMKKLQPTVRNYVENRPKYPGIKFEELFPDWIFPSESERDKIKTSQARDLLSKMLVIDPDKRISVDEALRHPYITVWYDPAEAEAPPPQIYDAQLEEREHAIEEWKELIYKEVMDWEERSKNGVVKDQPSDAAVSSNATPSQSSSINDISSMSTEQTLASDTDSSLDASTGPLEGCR

STK4 (human) = STK4 (human) (UniProt Q13043)
Sequence of STK4 (human) (Q13043 whole entry, looked up): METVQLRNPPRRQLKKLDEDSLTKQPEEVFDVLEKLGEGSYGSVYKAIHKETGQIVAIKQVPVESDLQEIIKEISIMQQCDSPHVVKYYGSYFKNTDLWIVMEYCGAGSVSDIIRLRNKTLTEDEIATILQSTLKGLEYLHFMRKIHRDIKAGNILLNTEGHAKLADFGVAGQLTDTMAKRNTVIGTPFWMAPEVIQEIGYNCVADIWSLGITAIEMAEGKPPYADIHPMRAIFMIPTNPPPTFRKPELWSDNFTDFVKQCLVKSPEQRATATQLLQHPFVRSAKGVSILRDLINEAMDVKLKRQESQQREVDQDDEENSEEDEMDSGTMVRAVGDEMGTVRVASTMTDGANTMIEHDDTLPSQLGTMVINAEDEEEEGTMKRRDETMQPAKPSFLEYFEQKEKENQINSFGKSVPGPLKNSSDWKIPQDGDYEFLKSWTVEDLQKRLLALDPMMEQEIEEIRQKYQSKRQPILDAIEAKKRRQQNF

NTRK2 (human) = NTRK2 (human) (UniProt Q16620)
CDC42BPA (human) = CDC42BPA (human) (UniProt Q5VT25)
SGK110 (human) = SGK110 (human) (UniProt P0C264)
Sequence of SGK110 (human) (P0C264 whole entry, looked up): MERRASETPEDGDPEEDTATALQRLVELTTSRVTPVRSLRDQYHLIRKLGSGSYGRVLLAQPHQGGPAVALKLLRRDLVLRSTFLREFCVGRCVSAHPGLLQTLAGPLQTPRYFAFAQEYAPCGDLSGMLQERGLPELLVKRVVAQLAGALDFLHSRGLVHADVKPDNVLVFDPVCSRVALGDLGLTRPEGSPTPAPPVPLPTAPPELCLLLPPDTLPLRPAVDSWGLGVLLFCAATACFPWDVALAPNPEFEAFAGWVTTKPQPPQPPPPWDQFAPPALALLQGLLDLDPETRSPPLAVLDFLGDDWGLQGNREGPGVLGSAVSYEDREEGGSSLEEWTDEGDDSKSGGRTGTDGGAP

PLK3 (human) = PLK3 (human) (UniProt Q9H4B4)
MKNK2 (human) = MKNK2 (human) (UniProt Q9HBH9)
NEK7 (human) = NEK7 (human) (UniProt Q8TDX7)
SRPK2 (human) = SRPK2 (human) (UniProt P78362)
MAPK14 (human) = MAPK14 (human) (UniProt Q16539)
Sequence of MAPK14 (human) (Q16539 whole entry, looked up): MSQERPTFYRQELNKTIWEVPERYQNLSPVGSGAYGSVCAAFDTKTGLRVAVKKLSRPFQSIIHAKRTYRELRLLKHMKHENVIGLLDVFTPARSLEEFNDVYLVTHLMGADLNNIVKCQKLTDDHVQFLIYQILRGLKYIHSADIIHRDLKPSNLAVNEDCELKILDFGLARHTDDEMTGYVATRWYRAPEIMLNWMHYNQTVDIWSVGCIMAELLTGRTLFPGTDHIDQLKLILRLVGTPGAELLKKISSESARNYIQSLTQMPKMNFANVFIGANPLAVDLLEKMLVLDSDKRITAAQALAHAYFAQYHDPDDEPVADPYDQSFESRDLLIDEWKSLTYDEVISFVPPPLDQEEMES

PIK3C2B (human) = PIK3C2B (human) (UniProt O00750)
MYO3B (human) = MYO3B (human) (UniProt Q8WXR4)
STK11 (human) = STK11 (human) (UniProt Q15831)
EPHA8 (human) = EPHA8 (human) (UniProt P29322)
Sequence of EPHA8 (human) (P29322 whole entry, looked up): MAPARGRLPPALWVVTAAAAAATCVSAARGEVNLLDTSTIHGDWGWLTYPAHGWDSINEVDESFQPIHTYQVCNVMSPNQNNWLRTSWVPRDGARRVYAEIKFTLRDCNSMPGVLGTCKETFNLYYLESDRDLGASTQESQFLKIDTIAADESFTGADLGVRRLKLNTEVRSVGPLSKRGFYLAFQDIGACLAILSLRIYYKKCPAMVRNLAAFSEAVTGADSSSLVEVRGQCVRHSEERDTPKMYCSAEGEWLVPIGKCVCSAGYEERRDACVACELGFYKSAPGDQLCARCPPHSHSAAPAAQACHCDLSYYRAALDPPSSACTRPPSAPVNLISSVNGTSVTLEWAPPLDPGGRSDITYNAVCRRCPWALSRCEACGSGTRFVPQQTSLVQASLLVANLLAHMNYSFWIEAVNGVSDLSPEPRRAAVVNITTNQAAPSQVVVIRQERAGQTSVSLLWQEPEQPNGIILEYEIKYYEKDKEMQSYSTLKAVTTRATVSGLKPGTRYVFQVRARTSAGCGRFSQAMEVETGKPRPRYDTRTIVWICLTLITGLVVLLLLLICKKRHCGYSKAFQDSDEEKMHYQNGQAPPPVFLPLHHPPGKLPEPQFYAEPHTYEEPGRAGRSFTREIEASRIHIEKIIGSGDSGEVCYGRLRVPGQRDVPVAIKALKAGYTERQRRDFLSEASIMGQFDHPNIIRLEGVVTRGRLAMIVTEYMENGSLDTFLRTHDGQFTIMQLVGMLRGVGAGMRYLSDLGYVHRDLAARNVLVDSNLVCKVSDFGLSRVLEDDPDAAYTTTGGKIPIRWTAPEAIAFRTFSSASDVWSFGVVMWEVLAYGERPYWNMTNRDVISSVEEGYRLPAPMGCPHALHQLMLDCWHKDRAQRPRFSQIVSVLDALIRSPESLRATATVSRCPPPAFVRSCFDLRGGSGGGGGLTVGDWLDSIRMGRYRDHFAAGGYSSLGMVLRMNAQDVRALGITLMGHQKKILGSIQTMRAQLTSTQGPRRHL

PIM3 (human) = PIM3 (human) (UniProt Q86V86)
SRC (human) = SRC (human) (UniProt P12931)
PRKAA1 (human) = PRKAA1 (human) (UniProt Q13131)
CSNK1A1L (human) = CSNK1A1L (human) (UniProt Q8N752)
CDK16 (human) = CDK16 (human) (UniProt Q00536)
INSRR (human) = INSRR (human) (UniProt P14616)
TAOK3 (human) = TAOK3 (human) (UniProt Q9H2K8)
MAP3K10 (human) = MAP3K10 (human) (UniProt Q02779)
[2] = system: ABL1 (human), P00519 [M351T]
RIOK2 (human) = RIOK2 (human) (UniProt Q9BVS4)
LATS1 (human) = LATS1 (human) (UniProt O95835)
DCLK1 (human) = DCLK1 (human) (UniProt O15075)
ANKK1 (human) = ANKK1 (human) (UniProt Q8NFD2)

Structure (SMILES) | kinase still bound, per cent of control (PHKG1 (human)) | kinase still bound, per cent of control (ABL2 (human)) | kinase still bound, per cent of control (MAP2K6 (human)) | kinase still bound, per cent of control (MYLK2 (human)) | kinase still bound, per cent of control (PIK3CD (human)) | kinase still bound, per cent of control [1] | kinase still bound, per cent of control (MAPK8 (human)) | kinase still bound, per cent of control (YES1 (human)) | kinase still bound, per cent of control (MAP3K9 (human)) | kinase still bound, per cent of control (LIMK2 (human)) | kinase still bound, per cent of control (SLK (human)) | kinase still bound, per cent of control (STK17B (human)) | kinase still bound, per cent of control (STK17A (human)) | kinase still bound, per cent of control (MAPK9 (human)) | kinase still bound, per cent of control (STK4 (human)) | kinase still bound, per cent of control (NTRK2 (human)) | kinase still bound, per cent of control (CDC42BPA (human)) | kinase still bound, per cent of control (SGK110 (human)) | kinase still bound, per cent of control (PLK3 (human)) | kinase still bound, per cent of control (MKNK2 (human)) | other results
COc1cc(C(=O)NC2CCN(C)CC2)ccc1Nc1ncc2c(n1)N(C1CCCC1)CCC(=O)N2C(C)C | 100% | 100% | 100% | 100% | 100% | 100% | 100% | 100% | 100% | 100% | 100% | 100% | 100% | 100% | 100% | 100% | 100% | 100% | 100% | 100% | kinase still bound, per cent of control (NEK7 (human)): 100%; kinase still bound, per cent of control (SRPK2 (human)): 100%; kinase still bound, per cent of control (MAPK14 (human)): 100%; kinase still bound, per cent of control (PIK3C2B (human)): 100%; kinase still bound, per cent of control (MYO3B (human)): 100%; kinase still bound, per cent of control (STK11 (human)): 100%; kinase still bound, per cent of control (EPHA8 (human)): 100%; kinase still bound, per cent of control (PIM3 (human)): 100%; kinase still bound, per cent of control (SRC (human)): 100%; kinase still bound, per cent of control (PRKAA1 (human)): 100%; kinase still bound, per cent of control (CSNK1A1L (human)): 100%; kinase still bound, per cent of control (CDK16 (human)): 100%; kinase still bound, per cent of control (INSRR (human)): 100%; kinase still bound, per cent of control (TAOK3 (human)): 100%; kinase still bound, per cent of control (MAP3K10 (human)): 100%; kinase still bound, per cent of control [2]: 100%; kinase still bound, per cent of control (RIOK2 (human)): 100%; kinase still bound, per cent of control (LATS1 (human)): 100%; kinase still bound, per cent of control (DCLK1 (human)): 100%; kinase still bound, per cent of control (ANKK1 (human)): 100%
O=C(NC1CC1)c1cccc(-c2ccc3c(NC(=O)C4CC4)n[nH]c3c2)c1 | 76% | 100% | 55% | 12% | 85% | 4.8% | 40% | 92% | 66% | 98% | 100% | 100% | 96% | 50% | 76% | 61% | 87% | 100% | 100% | 50% | kinase still bound, per cent of control (NEK7 (human)): 100%; kinase still bound, per cent of control (SRPK2 (human)): 58%; kinase still bound, per cent of control (MAPK14 (human)): 2%; kinase still bound, per cent of control (PIK3C2B (human)): 83%; kinase still bound, per cent of control (MYO3B (human)): 93%; kinase still bound, per cent of control (STK11 (human)): 45%; kinase still bound, per cent of control (EPHA8 (human)): 92%; kinase still bound, per cent of control (PIM3 (human)): 70%; kinase still bound, per cent of control (SRC (human)): 100%; kinase still bound, per cent of control (PRKAA1 (human)): 60%; kinase still bound, per cent of control (CSNK1A1L (human)): 100%; kinase still bound, per cent of control (CDK16 (human)): 5%; kinase still bound, per cent of control (INSRR (human)): 95%; kinase still bound, per cent of control (TAOK3 (human)): 33%; kinase still bound, per cent of control (MAP3K10 (human)): 95%; kinase still bound, per cent of control [2]: 57%; kinase still bound, per cent of control (RIOK2 (human)): 78%; kinase still bound, per cent of control (LATS1 (human)): 61%; kinase still bound, per cent of control (DCLK1 (human)): 96%; kinase still bound, per cent of control (ANKK1 (human)): 8%
Cc1ccc(NC(=O)c2cccc(C(C)(C)C#N)c2)cc1Nc1ccc2ncn(C)c(=O)c2c1 | 100% | 12% | 100% | 100% | 99% | 0.05% | 100% | 4.6% | 94% | 95% | 68% | 100% | 100% | 1.8% | 100% | 77% | 100% | 100% | 100% | 99% | kinase still bound, per cent of control (NEK7 (human)): 96%; kinase still bound, per cent of control (SRPK2 (human)): 100%; kinase still bound, per cent of control (MAPK14 (human)): 0%; kinase still bound, per cent of control (PIK3C2B (human)): 100%; kinase still bound, per cent of control (MYO3B (human)): 100%; kinase still bound, per cent of control (STK11 (human)): 100%; kinase still bound, per cent of control (EPHA8 (human)): 2.1%; kinase still bound, per cent of control (PIM3 (human)): 98%; kinase still bound, per cent of control (SRC (human)): 0.55%; kinase still bound, per cent of control (PRKAA1 (human)): 73%; kinase still bound, per cent of control (CSNK1A1L (human)): 100%; kinase still bound, per cent of control (CDK16 (human)): 100%; kinase still bound, per cent of control (INSRR (human)): 100%; kinase still bound, per cent of control (TAOK3 (human)): 100%; kinase still bound, per cent of control (MAP3K10 (human)): 100%; kinase still bound, per cent of control [2]: 3.3%; kinase still bound, per cent of control (RIOK2 (human)): 100%; kinase still bound, per cent of control (LATS1 (human)): 100%; kinase still bound, per cent of control (DCLK1 (human)): 97%; kinase still bound, per cent of control (ANKK1 (human)): 100%
